Reference: BindingDB's records for doi:10.7270/Q2FX7CM7 (n/a, 1993)

Target: DNA gyrase A/A/B/B tetramer (Escherichia coli (strain K12), UniProt P0AES4+P0AES6)
Assay: In vitro antibacterial activity was determined as inhibitory concentration causing 50% DNA-gyrase supercoiling inhibition (SCI)

C[C@H]1COc2c(N3CCN(C)CC3)c(F)cc3c(=O)c(C(=O)O)cn1c23 [9-fluoro-3-methyl-10-(4-methylpiperazin-1-yl)-7-oxo-2,3-dihydro-7H-[1,4]oxazino[2,3,4-ij]quinoline-6-carboxylic acid]
IC50: 4.98 µM
